Measurements reported in patent publication US5041567A, “Antibacterial monic acid derivatives” (Beecham Group plc, priority 1982, dated 1991).

Legend:
[1] = test system: Staph. aureus B4 (pen. resistant); experiment: MIC against veterinary bacteria in vitro; settings: Staphylococcus aureus, 18 h
Experimental: (§1) The activity of the compounds of the Examples against various veterinarily important bacteria, was assayed in vitro using two-fold serial dilutions in Diagnostic Sensitivity Test Agar inoculated with 10^4 organisms.

M. suipneumoniae MS 16 = experiment: MIC against mycoplasma in vitro; assay type: cell-based; settings: Mesomycoplasma hyopneumoniae, MS16, 144 h
[2] = test system: M. suipneumoniae ATCC 25095; experiment: MIC against mycoplasma in vitro; assay type: cell-based; settings: Mesomycoplasma hyopneumoniae, ATCC25095, 144 h; M. suipneumoniae ATCC 25095; 6 days, 37° C.; read-out: MIC
[3] = test system: Strep. suis (group D) SPS11; experiment: MIC against veterinary bacteria in vitro; settings: Streptococcus suis, 18 h
Experimental: as §1

M. suipneumoniae HK(2) = experiment: MIC against mycoplasma in vitro; assay type: cell-based; settings: Mesomycoplasma hyopneumoniae, 144 h; M. suipneumoniae HK(2); 6 days, 37° C.; read-out: MIC
M. hyorhinis ATCC 25021 = experiment: MIC against mycoplasma in vitro; assay type: cell-based; settings: Mesomycoplasma hyorhinis, ATCC25021, 144 h; M. hyorhinis ATCC 25021; 6 days, 37° C.; read-out: MIC
E. coli NCTC 10418 = experiment: MIC against human bacteria in vitro; assay type: cell-based; settings: Escherichia coli, NCTC10418; E. coli NCTC 10418; agar with 5% chocolated horse blood, 18 hours, 37° C.; read-out: MIC
Strep. dysgalactiae SPD1 = experiment: MIC against veterinary bacteria in vitro; settings: Streptococcus dysgalactiae, SPD1, 18 h
Experimental: as §1

E. coli E1 = experiment: MIC against veterinary bacteria in vitro; settings: Escherichia coli, E1, 18 h
Experimental: as §1

Strep. pneumoniae CN33 = experiment: MIC against human bacteria in vitro; assay type: cell-based; settings: Streptococcus pneumoniae; Strep. pneumoniae CN33; 5% chocolated horse blood agar, 18 hours; read-out: MIC
Past. multocida PA1 = experiment: MIC against veterinary bacteria in vitro; settings: Pasteurella multocida, PA1, 18 h
Experimental: as §1

S. dublin S7 = experiment: MIC against veterinary bacteria in vitro; settings: Salmonella enterica, S7, 18 h
Experimental: as §1

Past. multocida PA2 = experiment: MIC against veterinary bacteria in vitro; settings: Pasteurella multocida, PA2, 18 h
Experimental: as §1

P. mirabilis 889 = experiment: MIC against human bacteria in vitro; assay type: cell-based; settings: Proteus mirabilis; P. mirabilis 889; 5% chocolated horse blood agar, 18 hours; read-out: MIC
Strep. faecalis I = experiment: MIC against human bacteria in vitro; assay type: cell-based; settings: Enterococcus faecalis; Strep. faecalis I; 5% chocolated horse blood agar, 18 hours; read-out: MIC
[4] = test system: Corynebacterium xerosis 9755; experiment: MIC against human bacteria in vitro; assay type: cell-based; settings: Corynebacterium xerosis 9755; 5% chocolated horse blood agar, 18 hours; read-out: MIC
M. suipneumoniae LABER = experiment: MIC against mycoplasma in vitro; assay type: cell-based; settings: Mesomycoplasma hyopneumoniae, 144 h
Staph. aureus Russell = experiment: MIC against human bacteria in vitro; assay type: cell-based; settings: Staphylococcus aureus; Staph. aureus Russell; 5% chocolated horse blood agar, 18 hours; read-out: MIC
M. hyorhinis ATCC 23234 = experiment: MIC against mycoplasma in vitro; assay type: cell-based; settings: Mesomycoplasma hyorhinis, ATCC23234, 144 h; M. hyorhinis ATCC 23234; 6 days, 37° C.; read-out: MIC
E. coli ESS = experiment: MIC against human bacteria in vitro; assay type: cell-based; settings: Escherichia coli; E. coli ESS; 5% chocolated horse blood agar, 18 hours; read-out: MIC
K. aerogenes A = experiment: MIC against human bacteria in vitro; assay type: cell-based; settings: Klebsiella aerogenes; K. aerogenes A; 5% chocolated horse blood agar, 18 hours; read-out: MIC
M. suipneumoniae UCD 1 = experiment: MIC against mycoplasma in vitro; assay type: cell-based; settings: Mesomycoplasma hyopneumoniae, UCD1, 144 h; M. suipneumoniae UCD 1; 6 days, 37° C.; read-out: MIC
Strep. spp. 64/848-C = experiment: MIC against human bacteria in vitro; assay type: cell-based; settings: Strep. spp. 64/848-C; 5% chocolated horse blood agar, 18 hours; read-out: MIC
M. suipneumoniae TAM 6N = experiment: MIC against mycoplasma in vitro; assay type: cell-based; settings: Mesomycoplasma hyopneumoniae, TAM6N, 144 h; M. suipneumoniae TAM 6N; 6 days, 37° C.; read-out: MIC
Bord. bronchiseptica B09 = experiment: MIC against veterinary bacteria in vitro; settings: Bordetella bronchiseptica, B09, 18 h
Experimental: as §1

Staph. aureus Oxford = experiment: MIC against human bacteria in vitro; assay type: cell-based; settings: Staphylococcus aureus; Staph. aureus Oxford; 5% chocolated horse blood agar, 18 hours; read-out: MIC
[5] = test system: Pasteurella multocida 1633; experiment: MIC against human bacteria in vitro; assay type: cell-based; settings: Pasteurella multocida 1633; 5% chocolated horse blood agar, 18 hours; read-out: MIC
Staph. aureus W2827 = experiment: MIC against human bacteria in vitro; assay type: cell-based; settings: Staphylococcus aureus; Staph. aureus W2827; 5% chocolated horse blood agar, 18 hours; read-out: MIC
Bacillus subtilis 6633 = experiment: MIC against human bacteria in vitro; assay type: cell-based; settings: Bacillus subtilis 6633; 5% chocolated horse blood agar, 18 hours; read-out: MIC
M. dispar NCTC 10125 = experiment: MIC against mycoplasma in vitro; assay type: cell-based; settings: 144 h
Bord. bronchiseptica B08 = experiment: MIC against veterinary bacteria in vitro; settings: Bordetella bronchiseptica, B08, 18 h
Experimental: as §1

Strep. agalactiae SPA1 = experiment: MIC against veterinary bacteria in vitro; settings: Streptococcus agalactiae, SPA1, 18 h
Experimental: as §1

Strep. agalactiae 2788-B = experiment: MIC against human bacteria in vitro; assay type: cell-based; settings: Streptococcus agalactiae; Strep. agalactiae 2788-B; 5% chocolated horse blood agar, 18 hours; read-out: MIC

For C/C(=C\c1ncc(-c2ccc(C(=O)O)cc2)o1)C[C@@H]1OC[C@H](C[C@@H]2O[C@H]2[C@@H](C)[C@H](C)O)[C@@H](O)[C@H]1O [Example 17, Sodium 4-[2-(1-normon-2-yl)-5-oxazolyl] benzoate A], which MIC [1] is on record?
Its MIC is 10 µg/mL.

And the MIC (M. suipneumoniae MS 16)?
Its MIC is 2.5 µg/mL.

What about the MIC [2] of the same compound?
Its MIC is 5 µg/mL.

What about the MIC [3] of the same compound?
Its MIC is 40 µg/mL.

And the MIC (M. suipneumoniae HK(2))?
Its MIC is 10 µg/mL.

What about the MIC (M. hyorhinis ATCC 25021) of the same compound?
The MIC was 5 µg/mL.

What about the MIC (E. coli NCTC 10418) of the same compound?
Its MIC is over 64 µg/mL.

What about the MIC (Strep. dysgalactiae SPD1) of the same compound?
Its MIC is 2.5 µg/mL.

What about the MIC (E. coli E1) of the same compound?
The MIC was over 80 µg/mL.

And the MIC (Strep. pneumoniae CN33)?
Its MIC is 64 µg/mL.

What about the MIC (Past. multocida PA1) of the same compound?
Its MIC is 10 µg/mL.

And the MIC (S. dublin S7)?
Its MIC is over 80 µg/mL.

And the MIC (Past. multocida PA2)?
Its MIC is 1.25 µg/mL.

And the MIC (P. mirabilis 889)?
The MIC was over 64 µg/mL.

What about the MIC (Strep. faecalis I) of the same compound?
Its MIC is over 64 µg/mL.

What about the MIC [4] of the same compound?
The MIC was over 64 µg/mL.

What about the MIC (M. suipneumoniae LABER) of the same compound?
The MIC was 2.5 µg/mL.

And the MIC (Staph. aureus Russell)?
Its MIC is over 64 µg/mL.

What about the MIC (M. hyorhinis ATCC 23234) of the same compound?
The MIC was 5 µg/mL.

What about the MIC (E. coli ESS) of the same compound?
Its MIC is 16 µg/mL.

What about the MIC (K. aerogenes A) of the same compound?
Its MIC is over 64 µg/mL.

And the MIC (M. suipneumoniae UCD 1)?
Its MIC is 5 µg/mL.

And the MIC (Strep. spp. 64/848-C)?
The MIC was 32 µg/mL.

What about the MIC (M. suipneumoniae TAM 6N) of the same compound?
The MIC was 10 µg/mL.

What about the MIC (Bord. bronchiseptica B09) of the same compound?
Its MIC is 40 µg/mL.

And the MIC (Staph. aureus Oxford)?
The MIC was 32 µg/mL.

And the MIC [5]?
The MIC was 8 µg/mL.

And the MIC (Staph. aureus W2827)?
The MIC was over 64 µg/mL.

And the MIC (Bacillus subtilis 6633)?
The MIC was 32 µg/mL.

What about the MIC (M. dispar NCTC 10125) of the same compound?
Its MIC is 2.5 µg/mL.

What about the MIC (Bord. bronchiseptica B08) of the same compound?
The MIC was over 80 µg/mL.

What about the MIC (Strep. agalactiae SPA1) of the same compound?
The MIC was 40 µg/mL.

And the MIC (Strep. agalactiae 2788-B)?
The MIC was 32 µg/mL.
